Data as given in patent publication US20210321613A1, “Process for Preparation of Thiocyclam Base and Salt” (ARYSTA L[…], priority 2018, published 2021).

Key:
Assay type in all cases: in vivo
[1] = tested on: Coding moth, Cydia pomonella
Excerpt: Coding moth, Cydia pomonella—onate
larvae Bioassay by diet incorporation; Mortality assessment 2 days after treatment a.i. refers to active ingredient
(§1) LC stands for “Lethal Concentration”. LC values refer to the concentration of a chemical required to kill a certain proportion of a population of pests. The concentration of the chemical that kills 50 percent of the pests during the observation period is the LC50 value and a concentration that kills 90 percent of a population is LC90, LD stands for “Lethal Dose”. LD50 is the amount of an ingested substance that kills 50 percent of a test sample and […] is the lethal dose that kills 90 percent of the test sample. […] In example 1, approximately 4 times less thiocyclam hydrochloride was ingested by the moths at LC50 compared to cartap and approximately 9 times less at LC90 compared to cartap. […] In example 7, all three insecticides performed similarly to eliminate the aphids on radish plants. […] The use of the thiocyclam hydrochloride composition embodiments is in no way restricted to these genera, but also extends in the same manner to other insects and other crops.

[2] = tested on: Soybean looper, Chrysodeixis includens; experiment: Soybean looper bioassay by diet surface incorporation, mortality; conditions: for LC50: Chrysodeixis includens, 72 h, 3rd larval stage, diet surface incorporation, mortality 3 days after treatment (D + 3), read-out: LC50 (μg of a.i/ml of diet)
Excerpt: Soybean looper, Chrysodeixis includens—3rd larval stage
Bioassay by diet surface incorporation Mortality assessment 3 days after treatment a.i. refers to active ingredient
as §1

Aphids, Myzus persicae = experiment: Aphid larvae on radish, boom sprayer application (IRAC n°019 adapted), mortality; conditions: for LD50 (g a.iJha) / LD90 (g al./ha): mortality 3 days after application (D + 3); for LD50 (g al./ha) / LD90 (g alJha): mortality 4 days after application (D + 4)
Excerpt: Aphids, Myzus persicae—larvae
Study based on IRAC n°019 methods, application method adapted Plant: radish Application on petri dish with larvae with a boom sprayer apparatus Assessment of mortality 3 and 4 days after application a.i. refers to active ingredient
as §1

[3] = tested on: White flies, Trialeurodes vaporarium; experiment: White fly larvae on bean, boom sprayer application (IRAC n°015 adapted), mortality; conditions: for LD50 (g al/ha) / LD90 (g a.i/ha): mortality 9 days after application (D + 9); for LD50 (g a.i./ha) / LD90 (g a.i./ha): mortality 14 days after application (D + 14)
Excerpt: White flies, Trialeurodes vaporarium—larvae
Study based on IRAC n°015 methods, stage and application method adapted Plant: bean Application: On the petri dish with larvae with a boom sprayer apparatus Assessment of mortality at 7, 9 and 14 days after application a.i. refers to active ingredient
as §1

**Q.** For `CN(C)C1CSSSC1.Cl` [Thiocyclam HCl, N,N-dimethyl-1,2,3-trithian-5-ylamine hydrochloride], which “times less ingested by the moths at LC50 compared to cartap” value ([1]; compared to cartap, LC50) is on record?
**A.** Its value is “approximately 4 times”.

**Q.** And the “times less at LC90 compared to cartap” value ([1]; compared to cartap, LC90)?
**A.** Its value is “approximately 9 times”.

**Q.** And the “LC50 and LC90 compared to thiocyclam oxalate” value ([1]; compared to thiocyclam oxalate)?
**A.** Its value is “significantly lower concentrations”.

**Q.** What about the LC50 [2] of the same compound?
**A.** The LC50 was 8.99 µg/mL.

**Q.** And the “LC50 achieved with times less than cartap” value ([2]; compared to cartap, LC50)?
**A.** The value was “approximately 6 times”.

**Q.** And the “LC90 compared to the concentration of cartap” value ([2]; compared to cartap, LC90)?
**A.** Its value is “more than three times lower”.

**Q.** What about the “LC50 achieved with times less than thiocyclam oxalate” value ([2]; compared to thiocyclam oxalate, LC50) of the same compound?
**A.** The value was “approximately 20 times”.

**Q.** What about the “LC90 compared to thiocyclam oxalate” value ([2]; compared to thiocyclam oxalate, LC90) of the same compound?
**A.** Its value is “orders of magnitude smaller”.

**Q.** What about the “LD50 (g a.iJha)” value (Aphids, Myzus persicae) of the same compound?
**A.** Its value is 12.04 g a.iJha.

**Q.** What about the “LD90 (g al./ha)” value (Aphids, Myzus persicae) of the same compound?
**A.** The value was 30.51 g al./ha.

**Q.** What about the “LD50 (g al./ha)” value (Aphids, Myzus persicae) of the same compound?
**A.** Its value is 7.66 g al./ha.

**Q.** And the “LD90 (g alJha)” value (Aphids, Myzus persicae)?
**A.** The value was 27.07 g alJha.

**Q.** And the “LD90 compared to cartap” value ([3]; days 7 and 9)?
**A.** The value was “lower application concentration compared to cartap”.

**Q.** And the “LD90 (g ai./ha)” value ([3]; larvae, bean, mortality 7 days after application (D + 7))?
**A.** The value was 1,899 g ai./ha.

**Q.** And the “LD50 (g al/ha)” value ([3]; larvae, bean)?
**A.** The value was 2.23 g al/ha.

**Q.** And the “LD90 (g a.i/ha)” value ([3]; larvae, bean)?
**A.** The value was 4,905 g a.i/ha.

**Q.** What about the “LD50 (g a.i./ha)” value ([3]; larvae, bean) of the same compound?
**A.** The value was 0.82 g a.i./ha.

**Q.** What about the “LD90 (g a.i./ha)” value ([3]; larvae, bean) of the same compound?
**A.** Its value is 7,910 g a.i./ha.

**Q.** How did the LC50 [2] turn out when `CN(C)C(CSC(N)=O)CSC(N)=O` [Cartap, reference compound] was run?
**A.** Its LC50 is 53.1 µg/mL.

**Q.** What about the “LD50 (g a.iJha)” value (Aphids, Myzus persicae) of the same compound?
**A.** Its value is under 18.18 g a.iJha.

**Q.** And the “LD90 (g al./ha)” value (Aphids, Myzus persicae)?
**A.** Its value is 36.70 g al./ha.

**Q.** What about the “LD50 (g al./ha)” value (Aphids, Myzus persicae) of the same compound?
**A.** The value was under 18.18 g al./ha.

**Q.** And the “LD90 (g alJha)” value (Aphids, Myzus persicae)?
**A.** Its value is 16 g alJha.

**Q.** And the “LD50 (g al/ha)” value ([3]; larvae, bean)?
**A.** Its value is 15.6 g al/ha.

**Q.** What about the “LD90 (g a.i/ha)” value ([3]; larvae, bean) of the same compound?
**A.** Its value is 4,566.3 g a.i/ha.

**Q.** What about the “LD50 (g a.i./ha)” value ([3]; larvae, bean) of the same compound?
**A.** Its value is 10.4 g a.i./ha.

**Q.** And the “LD90 (g a.i./ha)” value ([3]; larvae, bean)?
**A.** Its value is 910.4 g a.i./ha.
